Where two headings read alike, the source gives them in different places.
Columns and labels:
[1] = system: Herpes simplex virus type 1 (Strain S); assay: Orofacial Herpes simplex virus type 1 infection in mice, therapeutic oral treatment (Table XIV); format: in vivo, Herpes simplex virus type 1; HRS (hairless) mice; conditions: for Lesion Incidence (%) / Lesion Incidence (number/Total) / Lesion Severity (scale 0 to 4): 12.5 mg/kg/day oral
Procedure: Twenty gram HRS (hairless) mice were infected on the abraded orofacial area with Herpes simplex virus type 1 (Strain S).
a. Groups of 10 infected animals were treated twice daily by oral gavage for up to 7 days with the compound of formula II at 12.5 mg/kg/day, starting 3, 8, 12, 24, 48, 72, or 96 hours after infection. […]
(§1) At 7 days after initiation of infection, the extent of lesion development in the orofacial area was measured on a scale of 0 (no lesions) to 4 (massive lesions over the entire snout).

HSV-1 [2] = assay: Corneal HSV-1 infection of rabbit eyes, topical treatment (Table VI); format: in vivo, HSV-1; rabbits; conditions: for Min. Effective Dose: corneal infection, topical treatment; for limiting progression and resolving corneal lesions: infected rabbits
[3] = system: Herpes simplex virus type I (HSV-1), strain Schooler; assay: Treatment of Herpes simplex virus infection in mice, intraperitoneal HSV-1, subcutaneous treatment (Table II); format: in vivo, HSV-1; ICR/Ha mice; conditions: for Percent Survival: at 15 days
Varicella-Zoster virus = assay: Varicella-Zoster plaque reduction assay on human MRC-5 monolayers; format: cell-based, Varicella-Zoster (Strain KMcC); human MRC-5 cells
Source text: ^b Plaque reduction assay on human MRC5 cell monolayers.

[4] = system: guanosine monophosphate kinase and extract of HSV1-infected HeLa cells; format: biochemical; conditions: gmp kinase, 4 h
Procedure: To the rest of the incubation mixtures were now added 0.04 units of guanosine monophosphate kinase and 20 μl of an extract of HSV1-infectedHeLa cells [The cells were infected with the virus at a multiplicity of 10 and harvested 8 hours later; they were suspended in a solution containing 0.35M KH2 PO4, pH 7.5, 0.5 mM dithiothreitol, 0.2% polyoxyethylene(9)octylphenol (Nonidet P-40), 14% glycerol at 50 mg/ml and after 30 minutes at 4° were centrifuged at […]; the supernatant liquid was the crude extract.] Incubation was continued at 30° for 4 more hours, after which samples were analyzed by HPLC and the amount of the triphosphate derivatives of each compound determined by integration of the area under the respective chromatographic peak.

[5] = system: Herpes simplex virus type 2 (Strain Curtis); assay: Vaginal Herpes simplex virus type 2 infection in mice, oral treatment (Table XII); format: in vivo, Herpes simplex virus type 2; ICR/Ha female mice; conditions: for Percent Survival: at 19 days
Procedure: Groups of 10 animals were treated twice daily for ten days by oral gavage using acycloquanosine or the compound of formula II at final daily doses of 50, 12.5, 3.1, 0.8 or 0.2 mg/kg starting immediately following infection. The average number of days to infection and the average days of survival were determined for each group and compared to an infected, placebo-treated group.

Epstein-Barr virus (EBV) = assay: Human cord blood lymphocyte transformation assay; format: cell-based, Epstein-Barr (B95-8); human cord blood lymphocytes; conditions: human gammaherpesvirus 4, B-95-8; B95-8, lymphocyte transformation; read-out: Minimum Effective Concentration
Source text: ^c Human cord blood lymphocyte transformation assay.

HSV-2 = assay: Vaginal HSV-2 infection in mice, oral treatment (Table VI); format: in vivo, HSV-2; ICR/Ha mice; conditions: for minimal effective dose: Human alphaherpesvirus 2, vaginal infection, oral treatment, read-out: Min. Effective Dose
[6] = system: Herpes simplex virus type 1 (Strain S); assay: Orofacial Herpes simplex virus type 1 infection in mice, oral treatment (Table XIII); format: in vivo, Herpes simplex virus type 1; HRS (hairless) mice; conditions: for Lesion Incidence (%) / Lesion Incidence (number/Total) / Lesion Severity (scale 0 to 4): 7 days
Procedure: as §1, with “Twenty grams HRS (hairless) mice were infected on the abraded orofacial area with Herpes simplex virus type 1 (Strain S). […] At” for “At”

HSV-2 TS6 = assay: microbe, parasite or virus in culture; conditions: Human alphaherpesvirus 2, read-out: ED50
HSV-1 PAA ®1 = assay: microbe, parasite or virus in culture; conditions: Human alphaherpesvirus 1, read-out: ED50
HSV-1 [7] = assay: In vitro activity against HSV-1 with and without added thymidine; format: cell-based; conditions: read-out: ED50 (the source's name)
HSV-1 (383R1) = assay: Protection of mice against intraperitoneal infection with HSV-1 (383R1) (Table IX); format: in vivo, HSV-1; mice
Procedure: 1. […] Groups of mice infected intraperitoneally with increasing doses of HSV-1 or HSV-1 (383R1) were treated twice daily subcutaneously for 4 days with either the Cyclic Monophosphate or the compound of Formula II. Mean survival times of treated mice were compared.

Nc1nc2c(ncn2COCCO)c(=O)[nH]1 [Acycloguanosine, 9-(2-hydroxyethoxymethyl)guanine, reference compound]
Lesion Incidence (%) ([1]; start 3 hours post infection): 100% | Lesion Incidence (number/Total) ([1]; start 3 hours post infection): 10/10 | Lesion Severity (scale 0 to 4) ([1]; start 3 hours post infection): 2.80 | Lesion Incidence (%) ([1]; start 8 hours post infection): 100% | Lesion Incidence (number/Total) ([1]; start 8 hours post infection): 10/10 | Lesion Severity (scale 0 to 4) ([1]; start 8 hours post infection): 2.95 | Lesion Incidence (%) ([1]; start 12 hours post infection): 90% | Lesion Incidence (number/Total) ([1]; start 12 hours post infection): 9/10 | Lesion Severity (scale 0 to 4) ([1]; start 12 hours post infection): 3.30 | Lesion Incidence (%) ([1]; start 24 hours post infection): 90% | Lesion Incidence (number/Total) ([1]; start 24 hours post infection): 9/10 | Lesion Severity (scale 0 to 4) ([1]; start 24 hours post infection): 2.85 | Lesion Incidence (%) ([1]; start 48 hours post infection): 80% | Lesion Incidence (number/Total) ([1]; start 48 hours post infection): 8/10 | Lesion Severity (scale 0 to 4) ([1]; start 48 hours post infection): 2.85 | Lesion Incidence (%) ([1]; start 72 hours post infection): 90% | Lesion Incidence (number/Total) ([1]; start 72 hours post infection): 9/10 | Lesion Severity (scale 0 to 4) ([1]; start 72 hours post infection): 3.60 | Lesion Incidence (%) ([1]; start 96 hours post infection): 100% | Lesion Incidence (number/Total) ([1]; start 96 hours post infection): 7/7 | Lesion Severity (scale 0 to 4) ([1]; start 96 hours post infection): 4.00 | incidence of lesions vs placebo ([1]; all start times): None of the acycloguanosine treated groups had a significantly lower incidence of lesions | lesion scores vs placebo ([1]; only start 3 hours after infection): statistically different in lesion score | Min. Effective Dose (HSV-1 [2]): 1.0% | limiting progression and resolving corneal lesions (HSV-1 [2]): equally effective | Avg. Survival Time ([3]; 3.1 mg/kg/day s.c.): 6.4 days | Percent Survival ([3]; 3.1 mg/kg/day s.c.): 6% | Avg. Survival Time ([3]; 12.5 mg/kg/day s.c.): 6.2 days | Percent Survival ([3]; 12.5 mg/kg/day s.c.): 6% | Avg. Survival Time ([3]; 50 mg/kg/day s.c.): 7.7 days | Percent Survival ([3]; 50 mg/kg/day s.c.): 0% | minimal effective concentration (Varicella-Zoster virus; Human alphaherpesvirus 3, MRC5, Strain KMcC, plaque reduction, read-out: Minimum Effective Concentration): 1 to 2 µg/mL | comparative activity (Varicella-Zoster virus; compound of formula II vs acycloguanosine): equally active | converted to the triphosphate [4]: 31% | Avg. Survival Time ([5]; 0.2 mg/kg/day oral): 8.8 days | Percent Survival ([5]; 0.2 mg/kg/day oral): 0% | Percent Survival ([5]; 0.8 mg/kg/day oral): 10% | Percent Survival ([5]; 3.1 mg/kg/day oral): 20% | Avg. Survival Time ([5]; 12.5 mg/kg/day oral): 14.1 days | Percent Survival ([5]; 12.5 mg/kg/day oral): 40% | number of days to infection vs placebo ([5]; 50 mg/kg and 12.5 mg/kg): statistically significant increases in the number of days to infection | Avg. Survival Time ([5]; 50 mg/kg/day oral): 17.6 days | Percent Survival ([5]; 50 mg/kg/day oral): 60% | survival time vs placebo ([5]; 50 and 12.5 mg/kg): similarly effective | survival vs placebo ([5]; only 50 mg/kg): statistically significant enhanced survival | minimal effective concentration (Epstein-Barr virus (EBV)): 10 to 100 µg/mL | minimal effective dose (HSV-2): 12.5 to 50 mg/kg/day | Lesion Incidence (%) ([6]; 0.8 mg/kg/day oral): 88% | Lesion Incidence (number/Total) ([6]; 0.8 mg/kg/day oral): 7/8 | Lesion Severity (scale 0 to 4) ([6]; 0.8 mg/kg/day oral): 3.11 | Lesion Incidence (%) ([6]; 3.1 mg/kg/day oral): 100% | Lesion Incidence (number/Total) ([6]; 3.1 mg/kg/day oral): 6/6 | Lesion Severity (scale 0 to 4) ([6]; 3.1 mg/kg/day oral): 3.25 | Lesion Incidence (%) ([6]; 12.5 mg/kg/day oral): 100% | Lesion Incidence (number/Total) ([6]; 12.5 mg/kg/day oral): 6/6 | Lesion Severity (scale 0 to 4) ([6]; 12.5 mg/kg/day oral): 2.67 | Lesion Incidence (%) ([6]; 50 mg/kg/day oral): 14% | Lesion Incidence (number/Total) ([6]; 50 mg/kg/day oral): 1/7 | incidence of lesions vs placebo ([6]; only at 50 mg/kg): statistically significant protection | extent of lesion development vs placebo ([6]; only at 50 and 12.5 mg/kg): statistically significant protection

Nc1nc2c(ncn2COC2COP(=O)(O)OC2)c(=O)[nH]1 (stereo not shown) [Cyclic Monophosphate, Potassium 9-(1,3-dihydroxy-2-propoxymethyl)guanine cyclic monophosphate]
EC50 (HSV-2 TS6): 0.4 µg/mL | Min. Effective Dose (HSV-1 [2]): 1.0% | limiting progression and resolving corneal lesions (HSV-1 [2]): equally effective | EC50 (HSV-1 PAA ®1): 3.2 µg/mL | EC50 (HSV-1 [7]; Human alphaherpesvirus 1, absence of thymidine): 12.5 µg/mL | EC50 (HSV-1 [7]; Human alphaherpesvirus 1, presence of thymidine (20 μg/ml)): 25 to 50 µg/mL | minimal effective dose (HSV-2): 0.8 mg/kg/day | efficacy relative to acyclovir by minimum effective dose (HSV-2; vaginal): consistently more efficacious than acyclovir | Mean Survival Time (± SD) (HSV-1 (383R1); HSV-1 (383R1), s.c. twice daily, 4 days): 13.42 (0.82) | efficacy against HSV-1 (383R1) relative to wild type HSV-1 (HSV-1 (383R1); mouse, in vivo): equally effective
